Results as given in the NIST ThermoML archive (doi:10.1021/je034102r).
± gives the expanded uncertainty stated by the source.

Test: molar heat capacity at constant pressure
Settings: 101.33 kPa, Liquid, heat bridge-scanning calorimeter

CCCCn1cc[n+](C)c1.F[P-](F)(F)(F)(F)F [1-butyl-3-methylimidazolium hexafluorophosphate]
Settings | molar heat capacity at constant pressure [J/K/mol]
380.71 K | 456.97 ± 9.1
380.84 K | 457.53 ± 9.1
380.98 K | 457.25 ± 9.1
381.25 K | 457.53 ± 9.1
381.38 K | 456.97 ± 9.1
381.51 K | 456.68 ± 9.1
381.63 K | 456.68 ± 9.1
381.76 K | 456.68 ± 9.1
381.89 K | 456.97 ± 9.1
382.01 K | 457.53 ± 9.1
382.14 K | 457.82 ± 9.1
382.27 K | 457.53 ± 9.1
382.56 K | 457.53 ± 9.1
382.68 K | 458.39 ± 9.1
382.81 K | 457.82 ± 9.1
382.94 K | 458.1 ± 9.1
383.06 K | 458.39 ± 9.1
383.19 K | 458.67 ± 9.1
383.32 K | 458.67 ± 9.1
383.45 K | 458.39 ± 9.1
383.57 K | 457.82 ± 9.1
383.7 K | 457.82 ± 9.1
383.83 K | 457.53 ± 9.1
384.1 K | 458.1 ± 9.1
384.23 K | 457.82 ± 9.1
384.36 K | 458.1 ± 9.1
384.48 K | 458.67 ± 9.1
384.61 K | 459.24 ± 9.1
384.74 K | 458.95 ± 9.1
384.86 K | 458.39 ± 9.1
384.99 K | 457.82 ± 9.1
385.12 K | 458.1 ± 9.1
385.41 K | 459.52 ± 9.1
385.54 K | 460.09 ± 9.1
385.66 K | 459.81 ± 9.1
385.79 K | 459.52 ± 9.1
385.92 K | 459.24 ± 9.1
386.05 K | 459.52 ± 9.1
386.18 K | 460.09 ± 9.1
386.3 K | 460.09 ± 9.1
386.43 K | 459.81 ± 9.1
386.56 K | 460.09 ± 9.1
386.69 K | 460.38 ± 9.1
386.97 K | 460.38 ± 9.1
387.1 K | 460.09 ± 9.1
387.23 K | 460.09 ± 9.1
387.36 K | 459.81 ± 9.1
387.49 K | 460.09 ± 9.1
387.61 K | 460.38 ± 9.1
387.74 K | 460.38 ± 9.1
387.87 K | 460.09 ± 9.1
388 K | 460.09 ± 9.1
388.28 K | 461.23 ± 9.1
388.41 K | 460.94 ± 9.1
388.54 K | 461.23 ± 9.1
388.67 K | 461.51 ± 9.1
388.79 K | 461.51 ± 9.1
388.92 K | 461.51 ± 9.1
389.05 K | 461.51 ± 9.1
389.18 K | 461.8 ± 9.4
389.3 K | 461.8 ± 9.4
389.43 K | 461.51 ± 9.1
389.56 K | 461.8 ± 9.4
389.84 K | 461.8 ± 9.4
389.96 K | 462.08 ± 9.4
390.09 K | 462.08 ± 9.4
390.22 K | 462.36 ± 9.4
390.35 K | 462.93 ± 9.4
390.47 K | 462.93 ± 9.4
390.6 K | 463.79 ± 9.4
390.73 K | 464.07 ± 9.4
390.86 K | 463.5 ± 9.4
391.15 K | 463.5 ± 9.4
391.27 K | 464.35 ± 9.4
391.4 K | 464.64 ± 9.4
391.53 K | 464.35 ± 9.4
391.66 K | 464.64 ± 9.4
391.79 K | 464.07 ± 9.4
391.92 K | 464.07 ± 9.4
392.05 K | 463.79 ± 9.4
392.17 K | 463.79 ± 9.4
392.3 K | 464.35 ± 9.4
392.43 K | 464.92 ± 9.4
392.71 K | 464.07 ± 9.4
392.84 K | 464.07 ± 9.4
392.97 K | 464.07 ± 9.4
393.11 K | 464.07 ± 9.4
393.24 K | 464.07 ± 9.4
393.36 K | 464.35 ± 9.4
393.49 K | 464.35 ± 9.4
393.62 K | 464.64 ± 9.4
393.75 K | 465.21 ± 9.4
394.04 K | 465.21 ± 9.4
394.17 K | 465.21 ± 9.4
394.3 K | 465.49 ± 9.4
